Reference: article PMC6581936, “Impact of Intracellular Concentrations on Metabolic Drug-Drug Interaction Studies” (The AAPS Journal, 2019)
Where “and” joins values, the source holds several entries; their conditions need not be identical. Identical values can stand only once. Like-named read-outs stand apart in the source and are kept apart here.

What was measured:
[1] = Fraction unbound to microsomes (fu,mic), equilibrium dialysis, HLM 0.2 mg/mL; conditions: both, human
[2] = Fraction unbound in the cell (fu,cell), homogenization method/equilibrium dialysis; type: in vitro ADME, human; conditions: HH homogenate; for fraction unbound at 4 h, 0.5 μM / fraction unbound at 0.5 μM: human, human hepatocyte cell homogenate
[3] = design: method as in Brown et al., Drug Metab Dispos 2010; conditions: rat liver microsomes; ref Brown et al., Drug Metab Dispos 2010; cited from earlier work
[4] = Intracellular unbound drug accumulation ratio (Kpuu) in suspended HH; type: in vitro ADME, human; conditions: for Kpuu / Kp uu: suspended HH; for Kpuu: Kp x fu,cell, reference compounds; for Kp uu: human, suspended human hepatocytes
Description: Kpuu was determined as previously described ([7],[18]) using Eq. (1):
1 Kpuu=Kp∙fu,cell/fu,medium where Kp is the steady-state cellular uptake, and fu,cell the fraction of unbound compound in the cell, determined as described below. The fraction unbound of the compound in the medium (fu,medium) was equal to 1 as no serum proteins or other drug binding components were added to the incubation media.

[5] = design: method as in Brown et al, DMD, 2010; conditions: rat hepatocytes; ref Brown et al, DMD, 2010; cited from earlier work
[6] = Kp and mass balance in HH in presence and absence of CYP inhibitor ABT; type: in vitro ADME, human; conditions: for mass balance: hepatocyte experiments, without ABT
Description: S 4 Kp in presence of metabolic inhibitor ABT
A batch of HH derived from a single donor and a pooled batch were each used to measure Kp at 45
minutes in presence and absence of the CYP inhibitor ABT.[1]
Time curves over 45 minutes were established in plated HH. […]

[7] = Steady-state cellular uptake (Kp) in suspended HH; type: in vitro ADME; conditions: human, suspended human hepatocytes; for Kp at 5 min, 0.5 μM: RO compounds, parameters matched to the IC50 assay
Description: The Kp in suspended HH was measured similarly to previous reports with some modifications ([7],[18]). Briefly, cells were rinsed twice with […] 10 mM HEPES. One hundred microliters of cell suspension (5 × 10^6 cells/mL) was added to a conical 96-well plate, and 100 μL of 1 μM drug solutions in Hank’s buffered salt solution (HBSS) buffered with 10 mM HEPES was added (resulting in a 0.5 μM final concentration). All incubations were performed in triplicates on up to three independent occasions. Full-time curves were established at 1, 3, 7.5, 15, 30, and 45 min to determine Kp at equilibrium. For single time point measurements, the incubation time was matched to the CYP inhibition assays. A sample of the medium was removed after centrifugation in a pre-cooled centrifuge at 4°C (100×g, 5 min), and ten-fold diluted with a mixture of acetonitrile and water (60:40) containing the internal standard for determination of Cmedium. The remaining supernatant was removed by aspiration and cells were washed twice with ice-cold buffer. The intracellular compound was extracted using the acetonitrile to water to internal standard mixture for determination of the amount of drug in the cells (Acell). Protein content (Pcell) was quantified using the BCA assay in representative wells to establish the cellular volume (Vcell), assuming 6.5 μL/mg protein ([23]). Finally, Kp was calculated using Eq. (2)2 Kp=Acell/Vcell∙Pcell/Cmedium

[8] = test system: CYP3A4; design: method as in earlier work; conditions: RH; MDZ/1'-OH; ref [2] Brown et al., Drug Metab Dispos 2010; read-out: Ki (Ki,app); cited from earlier work
[9] = Intracellular unbound drug accumulation ratio (Kpuu) in suspended HH; type: in vitro ADME; conditions: human, human hepatocytes, pH partitioning theory, read-out: calculated cytosolic Kpuu (or Fcyto)
[10] = design: method as in Brown et al, DMD, 2010; conditions: rat; calculated from Kilford et al. (2008); ref Brown et al, DMD, 2010; cited from earlier work
[11] = test system: CYP3A4; conditions: read-out: Ki (Ki,app); RLM; MDZ/1'-OH; ref [2] Brown et al., Drug Metab Dispos 2010; cited from earlier work
[12] = Kpuu in rat hepatocytes derived from literature Kp; type: in vitro ADME; conditions: literature rat Kp x experimental (human) fu,cell
[13] = target: T1, CYP1A2 (Homo sapiens, UniProt P05177); assay: CYP1A2 inhibition in suspended HH; type: cell-based; conditions: TCR/1'-OH, source [3] In house
Description: (§1) For HH, 50 μL of a suspension of cryopreserved HH (3 × 10^6 cells/mL) were added to a 96-well round bottom plate and pre-incubated for 20 min in Williams E medium (without FBS). Fifty microliters of a × 3 concentrated test compound-solution and 50 μL of × 3 concentrated substrate (diclofenac for CYP2C9, midazolam for CYP3A4 and tacrine for CYP1A2) were added and the plate was incubated on a shaker at 37°C, 5% CO2, and 900 rpm. Incubations were stopped after 5 min by transferring 100 μL of the suspension to a fresh plate and adding 100 μL of acetonitrile containing the internal standard and then analyzed as above.

[14] = target: T1, CYP1A2; assay: CYP1A2 inhibition in HLM; type: biochemical; conditions: average values from table S1; read-out: IC50,app HLM
[15] = test system: CYP1A2; design: method as in earlier work; conditions: RH; TPH/1,3-DMU; ref [2] Brown et al., Drug Metab Dispos 2010; read-out: Ki (Ki,app); cited from earlier work
[16] = test system: CYP1A2; design: method as in earlier work; conditions: RLM; TPH/1,3-DMU; ref [2] Brown et al., Drug Metab Dispos 2010; read-out: Ki (Ki,app); cited from earlier work
[17] = pKa of RO compounds; type: physicochemical; conditions: method not stated
Text: Table II Properties of the RO Discovery Compound Series and Results in HLM and Suspended HH | column: pKa

[18] = test system: CYP2C9; assay: CYP2C9 inhibition assay in HLM and HH (diclofenac); type: biochemical, human; conditions: diclofenac as substrate
Description: After the addition of 20 μL of 10 mM NADPH, the plate was incubated for 5 min. The reaction was stopped by adding 200 μL of acetonitrile containing an internal standard. After centrifugation of 10 min at 6200×g, the concentration of the substrate in the samples was determined by LC-MS (Sciex API4000, see S6 for LC-MS parameters).
as §1

[19] = Papp of RO compounds; type: in vitro ADME; conditions: not told, method not stated
Text: Table II Properties of the RO Discovery Compound Series and Results in HLM and Suspended HH | column: Papp (× 10^−6 cm/s)

[20] = cited from earlier work
[21] = azole series (itraconazole 24 h dialysis)

T1 sequence (P05177 whole entry): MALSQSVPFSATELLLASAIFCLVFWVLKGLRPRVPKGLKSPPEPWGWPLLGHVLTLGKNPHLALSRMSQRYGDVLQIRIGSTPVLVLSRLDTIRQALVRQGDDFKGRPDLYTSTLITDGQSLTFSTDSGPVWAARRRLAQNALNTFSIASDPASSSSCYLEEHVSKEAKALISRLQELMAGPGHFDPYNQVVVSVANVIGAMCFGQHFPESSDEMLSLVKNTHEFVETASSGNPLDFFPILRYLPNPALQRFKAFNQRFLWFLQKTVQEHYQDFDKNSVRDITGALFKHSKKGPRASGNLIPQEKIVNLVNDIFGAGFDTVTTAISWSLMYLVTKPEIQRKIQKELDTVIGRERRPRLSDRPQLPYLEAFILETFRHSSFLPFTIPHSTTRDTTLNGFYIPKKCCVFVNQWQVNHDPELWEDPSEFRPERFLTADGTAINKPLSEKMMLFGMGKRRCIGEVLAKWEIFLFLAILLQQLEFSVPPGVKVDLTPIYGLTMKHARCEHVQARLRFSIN

SMILES	fraction unbound at 4 h, 0.5 μM ([1]; human liver microsomes)	fraction unbound at 4 h, 0.5 μM ([2]; RO compounds)	Kp uu ([4]; RO compounds)	pKa [17]	Kp at 5 min, 0.5 μM [7]	Papp [19]	also measured
CC[C@H]1OC(=O)[C@H](C)[C@@H](O[C@H]2C[C@@](C)(OC)[C@@H](O)[C@H](C)O2)[C@H](C)[C@@H](O[C@@H]2O[C@H](C)C[C@H](N(C)C)[C@H]2O)[C@](C)(OC)C[C@@H](C)C(=O)[C@H](C)[C@@H](O)[C@]1(C)O [Clarithromycin]	[…]						fraction unbound at 4 h, 0.5 μM ([2]; 0.5 μM, reference compounds): […]; fu,mic [3]: 0.81; Kpuu [4]: […]; Kpuu ([4]; listed as clarithromycin): […]; Kp [5]: 22; mass balance ([6]; suspended HH): […]; Kp at 0.5 μM ([7]; 0.5 μM, reference compounds): 25.9 ± 2.1; Ki [8]: […]; Kp uu [9]: 1.3; fu,cell [10]: 0.86; Ki [11]: […]; Kp uu [12]: 2.27 ± 0.28
CCn1cc(C(=O)O)c(=O)c2cc(F)c(N3CCNCC3)nc21 [Enoxacin]	0.53 ± 0.13						fraction unbound at 4 h, 0.5 μM ([2]; 0.5 μM, reference compounds): 1; fu,mic [3]: 0.99; Kp [5]: 20; IC50 [13]: 422 ± 93 µM; mass balance ([6]; suspended HH): ~ 100%; Kp at 0.5 μM ([7]; 0.5 μM, reference compounds): 7.4 ± 1.1; fu,cell [10]: 0.99; IC50 [14]: 2140 ± 370 µM; Ki [15]: 120 ± 65 µM; Ki [16]: 2800 ± 1200 µM; Kp uu [12]: 20
CCC(C)n1ncn(-c2ccc(N3CCN(c4ccc(OCC5COC(Cn6cncn6)(c6ccc(Cl)cc6Cl)O5)cc4)CC3)cc2)c1=O (stereo not shown) [Itraconazole, reference compound]							fraction unbound at 0.5 μM ([1]; human liver microsomes): 0.21 ± 0.13; fu,cell [2, 21]: 0.003 ± 0.002; Kp uu ([4]; azole series): 7.5 ± 6.3; Kp at 0.5 μM ([7]; azole series): 2720 ± 1570
CC(=O)N1CCN(c2ccc(OCC3COC(Cn4ccnc4)(c4ccc(Cl)cc4Cl)O3)cc2)CC1 (stereo not shown) [Ketoconazole, reference compound]							fraction unbound at 0.5 μM ([1]; microsomes): 0.32 ± 0.12; fraction unbound at 0.5 μM [2, 21]: 0.004 ± 0.001
Cc1c(O)cccc1C(=O)N[C@@H](CSc1ccccc1)[C@H](O)CN1C[C@H]2CCCC[C@H]2C[C@H]1C(=O)NC(C)(C)C [Nelfinavir]	0.04 ± 0.02						fu,cell ([2]; 0.5 μM, reference compounds): 0.00025 ± 0.00005; fraction unbound at 4 h, 0.5 μM ([2]; 0.5 μM, reference compounds): 0.0002; fu,mic [3]: 0.022; Kpuu with wash buffers at 4 and 37°C, with and without albumin ([4]; 45 minutes, except 4°C without albumin vs 37°C containing albumin): did not differ; Kp [5]: 3352; Kp in presence or absence of ABT ([6]; HH, 45 minutes): unaffected; change of mass balance upon addition of ABT ([6]; suspended HH, 45 minutes): approximately doubled; Ki [8]: […]; fu,cell [10]: 0.035; Ki [11]: […]
CC[C@@H]([C@H](C)O)n1ncn(-c2ccc(N3CCN(c4ccc(OC[C@@H]5CO[C@@](Cn6cncn6)(c6ccc(F)cc6F)C5)cc4)CC3)cc2)c1=O [Posaconazole, reference compound]							fraction unbound at 0.5 μM ([1]; human liver microsomes): 0.21 ± 0.11; fraction unbound at 0.5 μM [2, 21]: 0.005 ± 0.003; Kp uu ([4]; azole series): 37.6 ± 12.8; Kp at 0.5 μM ([7]; azole series): 6930 ± 1240
CO[C@H]1/C=C/O[C@@]2(C)Oc3c(C)c(O)c4c(O)c(c(/C=N/N5CCN(C)CC5)c(O)c4c3C2=O)NC(=O)/C(C)=C\C=C\[C@H](C)[C@H](O)[C@@H](C)[C@@H](O)[C@@H](C)[C@H](OC(C)=O)[C@@H]1C [rifampicin]							empirical hepatic uptake scalar [20]: 16.9

The next lines start with results.

fraction unbound at 4 h, 0.5 μM ([1]; human liver microsomes)	fraction unbound at 4 h, 0.5 μM ([2]; RO compounds)	Kp uu ([4]; RO compounds)	pKa [17]	Kp at 5 min, 0.5 μM [7]	Papp [19]	SMILES	also measured
0.42 ± 0.06	0.0149 ± 0.0003	0.357 ± 0.003	5.41	24 ± 2.2	10 ×10⁻⁶ cm/s	Cc1cccc(S(=O)(=O)NC(=O)Nc2cc(Br)cc(N)n2)c1 [RO01]	difference of IC50,app between HH and HLM [18]: identical
0.36 ± 0.09	0.0013 ± 7e-05	0.0613 ± 0.0002	3.14	47.3 ± 1.1	2 ×10⁻⁶ cm/s	Cc1cccc2cc(S(=O)(=O)NC(=O)Nc3ncc(Br)s3)sc12 [RO02]	
0.41 ± 0.03	0.017 ± 0.001	0.3 ± 0.08	2.91	17.9 ± 8.9	9 ×10⁻⁶ cm/s	COCc1oc(S(=O)(=O)NC(=O)Nc2ncc(Br)s2)cc1C [RO03]	difference of IC50,app between HH and HLM [18]: identical
0.45 ± 0.11	0.02 ± 0.01	0.46 ± 0.65	2.8	27.6 ± 26.1	13 ×10⁻⁶ cm/s	COCc1oc(S(=O)(=O)NC(=O)Nc2nc(C)c(Br)s2)cc1C [RO04]	difference of IC50,app between HH and HLM [18]: identical
0.23 ± 0.02	0.0021 ± 0.0003	0.039 ± 0.003	2.76	18.5 ± 4.4	2 ×10⁻⁶ cm/s	O=C(Nc1ncc(Br)s1)NS(=O)(=O)c1cc2cccc(Cl)c2s1 [RO05]	
0.36 ± 0.11	0.0039 ± 0.0003	0.24 ± 0.1	2.8	61.6 ± 38.6	3 ×10⁻⁶ cm/s	Cn1c(S(=O)(=O)NC(=O)Nc2ncc(Br)s2)cc2ccccc21 [RO06]	
0.84 ± 0.06	0.00392 ± 3e-05	0.16 ± 0.01	3.17	41.9 ± 4.8	4 ×10⁻⁶ cm/s	COc1cc(C)c(-c2sc(S(=O)(=O)NC(=O)Nc3ncc(Br)s3)cc2C)cn1 [RO07]	
0.41 ± 0.09	0.009 ± 0.004	0.21 ± 0.05	2.66	22.2 ± 4.3	22 ×10⁻⁶ cm/s	Cc1cccc(S(=O)(=O)NC(=O)Nc2snc(C)c2Br)c1 [RO08]	
0.97 ± 0.41	0.0075 ± 0.0006	0.088 ± 0.003	2.49	11.7 ± 2	2 ×10⁻⁶ cm/s	COCCc1sc(S(=O)(=O)NC(=O)Nc2snc(C)c2Br)cc1C [RO09]	difference of IC50,app between HH and HLM [18]: 12 fold
